Assay results published in patent US12257237B2 (priority 2017, dated 2025).
Where “and” joins values, the source holds several entries; their conditions need not be identical. Equal values may be shown once.

Tested on: TC-71 Ewing sarcoma
Assay: Antitumour activity in TC-71 Ewing sarcoma xenograft model
Assay type: in vivo, Athymic nude mice
Conditions: for optimal T/C: day 21; for mice still in CR at the end of the experiment: after second cycle
Description: Experiments were performed with female Athymic nude mice, 9-10 weeks old obtained from Harlan Laboratories (Udine, Italy). They were maintained under Specific Pathogen Free conditions with constant temperature and humidity, according to the institutional guidelines.
Tumour growth mice was monitored two/three times a week (depending on tumour growth rate, to avoid unnecessary stress to the animals) by Vernier caliper. Mice were sacrificed when tumour reached a mean weight of 2±0.5 gr. The antitumour activity will be expressed as T/C %, where T and C were the mean tumour weight of treated and control groups, respectively. Mice were monitored daily and weighted at least two times a week. Tolerability was evaluated on the basis of body weight loss (BWL) and clinical observation.
Statistical analysis was performed with GraphPad Prism version 6.01 software (GraphPad software, Inc., La Jolla, CA, USA). ANOVA test was performed to evaluate if there were statistically significant differences between treated and control groups.
5×10^6 TC-71 cells were inoculated subcutaneously in the right flank of mice. The growing tumour masses were measured with the aid of a Vernier caliper, and the tumour weights (1 mm^3=1 mg) were calculated by the formula: length×(width) 2/2. When tumour load achieved about 100 mg, mice were randomized into the experimental groups and treatment started.

[1] = EDO80: 80 mg/kg i.v. single dose, day 9 from inoculum
[2] = EDO80: 80 mg/kg i.v. single dose, day 11 from inoculum
[3] = EDO80: 80 mg/kg i.v. single dose, day 14 from inoculum
[4] = EDO80: 80 mg/kg i.v. single dose, day 16 from inoculum
[5] = EDO80: 80 mg/kg i.v. single dose, day 18 from inoculum
[6] = EDO80: 80 mg/kg i.v. single dose, day 21 from inoculum
[7] = EDO80: 80 mg/kg i.v. single dose, day 23 from inoculum
[8] = EDO80: 80 mg/kg i.v. single dose, day 25 from inoculum
[9] = EDO80: 80 mg/kg i.v. single dose, day 28 from inoculum
[10] = EDO80: 80 mg/kg i.v. single dose, day 30 from inoculum
[11] = EDO80: 80 mg/kg i.v. single dose, day 32 from inoculum
[12] = EDO80: 80 mg/kg i.v. single dose, day 35 from inoculum
[13] = EDO80: 80 mg/kg i.v. single dose, day 38 from inoculum
[14] = EDO80: 80 mg/kg i.v. single dose, day 42 from inoculum
[15] = EDO80: 80 mg/kg i.v. single dose, day 45 from inoculum
[16] = EDO80: 80 mg/kg i.v. single dose, day 49 from inoculum

Compound: Cn1c(CCCCCCC(=O)NO)nc2cc(N(CCCl)CCCl)ccc21 [EDO-S101, 7-(5-(bis(2-chloroethyl)amino)-1-methyl-1H-benzo[d]imidazol-2-yl)-N-hydroxyheptanamide]
- optimal T/C (40 mg/kg i.v. q7dx3): 24%
- tumour regression (40 mg/kg q7dx3): no tumour regression in tumour volume was observed
- effect of a second cycle of treatments on tumour re-growth (60 mg/kg): further delayed tumour re-growth without being able to arrest it
- complete regressions (CR) (60 mg/kg group): 3 out of 8
- tumour regression (60 mg/kg group): sustained tumour regressions in all of the treated mice
- mice still in CR at the end of the experiment (60 mg/kg group): two
- optimal T/C (60 mg/kg i.v. q7dx3): 1%
- effect of a second cycle of treatments on tumour re-growth (80 mg/kg): further delayed tumour re-growth without being able to arrest it
- complete regressions (CR) (80 mg/kg group): 4 out of 8
- tumour regression (80 mg/kg group): sustained tumour regressions in all of the treated mice
- mice still in CR at the end of the experiment (80 mg/kg group): one
- optimal T/C (80 mg/kg i.v. single dose): 0.5%
- TC-71 tumour weight, mean (EDO40: 40 mg/kg i.v. q7dx3, day 9 from inoculum): 103.5 mg
- TC-71 tumour weight, mean (EDO40: 40 mg/kg i.v. q7dx3, day 11 from inoculum): 180.4 mg
- TC-71 tumour weight, mean (EDO40: 40 mg/kg i.v. q7dx3, day 14 from inoculum): 180.6 mg
- TC-71 tumour weight, mean (EDO40: 40 mg/kg i.v. q7dx3, day 16 from inoculum): 236.4 mg
- TC-71 tumour weight, mean (EDO40: 40 mg/kg i.v. q7dx3, day 18 from inoculum): 319.3 mg
- TC-71 tumour weight, mean (EDO40: 40 mg/kg i.v. q7dx3, day 21 from inoculum): 348.4 mg
- TC-71 tumour weight, mean (EDO40: 40 mg/kg i.v. q7dx3, day 23 from inoculum): 514.5 mg
- TC-71 tumour weight, mean (EDO40: 40 mg/kg i.v. q7dx3, day 25 from inoculum): 548.0 mg
- TC-71 tumour weight, mean (EDO40: 40 mg/kg i.v. q7dx3, day 28 from inoculum): 733.8 mg
- TC-71 tumour weight, mean (EDO40: 40 mg/kg i.v. q7dx3, day 30 from inoculum): 1055.5 mg
- TC-71 tumour weight, mean (EDO40: 40 mg/kg i.v. q7dx3, day 32 from inoculum): 1376.1 mg
- TC-71 tumour weight, mean (EDO60: 60 mg/kg i.v. q7dx3, day 9 from inoculum): 106.1 mg
- TC-71 tumour weight, mean (EDO60: 60 mg/kg i.v. q7dx3, day 11 from inoculum): 130.4 mg
- TC-71 tumour weight, mean (EDO60: 60 mg/kg i.v. q7dx3, day 14 from inoculum): 76.1 mg
- TC-71 tumour weight, mean (EDO60: 60 mg/kg i.v. q7dx3, day 16 from inoculum): 39.2 mg
- TC-71 tumour weight, mean (EDO60: 60 mg/kg i.v. q7dx3, day 18 from inoculum): 24.2 mg
- TC-71 tumour weight, mean (EDO60: 60 mg/kg i.v. q7dx3, day 21 from inoculum): 14.1 mg
- TC-71 tumour weight, mean (EDO60: 60 mg/kg i.v. q7dx3, day 23 from inoculum): 19.1 mg
- TC-71 tumour weight, mean (EDO60: 60 mg/kg i.v. q7dx3, day 25 from inoculum): 23.2 mg
- TC-71 tumour weight, mean (EDO60: 60 mg/kg i.v. q7dx3, day 28 from inoculum): 22.9 mg
- TC-71 tumour weight, mean (EDO60: 60 mg/kg i.v. q7dx3, day 30 from inoculum): 43.7 mg
- TC-71 tumour weight, mean (EDO60: 60 mg/kg i.v. q7dx3, day 32 from inoculum): 119.4 mg
- TC-71 tumour weight, mean (EDO60: 60 mg/kg i.v. q7dx3, day 35 from inoculum): 155.1 mg
- TC-71 tumour weight, mean (EDO60: 60 mg/kg i.v. q7dx3, day 38 from inoculum): 205.8 mg
- TC-71 tumour weight, mean (EDO60: 60 mg/kg i.v. q7dx3, day 42 from inoculum): 396.7 mg
- TC-71 tumour weight, mean (EDO60: 60 mg/kg i.v. q7dx3, day 45 from inoculum): 601.3 mg
- TC-71 tumour weight, mean (EDO60: 60 mg/kg i.v. q7dx3, day 49 from inoculum): 642.0 mg
- TC-71 tumour weight, mean (EDO60: 60 mg/kg i.v. q7dx3, day 53 from inoculum): 906.2 mg
- TC-71 tumour weight, mean (EDO60: 60 mg/kg i.v. q7dx3, day 56 from inoculum): 1549.1 mg
- TC-71 tumour weight, individual mice [1]: 222.4 mg and 133.9 mg and 113.7 mg and 97.0 mg and 83.4 mg and 80.5 mg and 57.3 mg and 45.5 mg
- TC-71 tumour weight, mean [1]: 104.2 mg
- TC-71 tumour weight, individual mice [2]: 369.7 mg and 200.9 mg and 133.4 mg and 118.7 mg and 55.8 mg and 65.3 mg and 49.8 mg and 45.0 mg
- TC-71 tumour weight, mean [2]: 129.8 mg
- TC-71 tumour weight, individual mice [3]: 209.5 mg and 68.4 mg and 34.6 mg and 32.5 mg and 24.2 mg and 15.6 mg and 17.0 mg
- TC-71 tumour weight, mean [3]: 51.7 mg
- TC-71 tumour weight, individual mice [4]: 124.6 mg and 34.0 mg and 11.8 mg and 8.0 mg and 5.9 mg and 3.2 mg and 6.8 mg
- TC-71 tumour weight, mean [4]: 25.6 mg
- TC-71 tumour weight, individual mice [5]: 68.6 mg and 8.3 mg and 7.4 mg and 3.1 mg and 4.3 mg and 7.1 mg and 2.3 mg and 4.9 mg
- TC-71 tumour weight, mean [5]: 13.2 mg
- TC-71 tumour weight, individual mice [6]: 23.4 mg and 3.4 mg and 5.3 mg and 1.0 mg and 2.5 mg and 5.4 mg
- TC-71 tumour weight, mean [6]: 7.3 mg
- TC-71 tumour weight, individual mice [7]: 16.8 mg and 2.1 mg and 8.6 mg and 35.1 mg and 2.4 mg and 1.2 mg
- TC-71 tumour weight, mean [7]: 11.0 mg
- TC-71 tumour weight, individual mice [8]: 38.4 mg and 3.8 mg and 14.0 mg and 74.0 mg and 4.1 mg
- TC-71 tumour weight, mean [8]: 26.9 mg
- TC-71 tumour weight, individual mice [9]: 117.5 mg and 4.1 mg and 59.4 mg and 203.9 mg
- TC-71 tumour weight, mean [9]: 65.7 mg
- TC-71 tumour weight, individual mice [10]: 220.0 mg and 18.1 mg and 185.0 mg and 415.0 mg and 12.8 mg
- TC-71 tumour weight, mean [10]: 126.3 mg
- TC-71 tumour weight, individual mice [11]: 340.2 mg and 64.8 mg and 238.3 mg and 594.3 mg and 37.0 mg
- TC-71 tumour weight, mean [11]: 199.8 mg
- TC-71 tumour weight, individual mice [12]: 319.1 mg and 49.1 mg and 343.5 mg and 692.9 mg and 34.3 mg
- TC-71 tumour weight, mean [12]: 225.9 mg
- TC-71 tumour weight, individual mice [13]: 239.8 mg and 32.6 mg and 310.8 mg and 670.0 mg and 56.6 mg
- TC-71 tumour weight, mean [13]: 204.0 mg
- TC-71 tumour weight, individual mice [14]: 598.5 mg and 77.8 mg and 1030.8 mg and 1865.6 mg and 237.5 mg
- TC-71 tumour weight, mean [14]: 601.9 mg
- TC-71 tumour weight, individual mice [15]: 790.9 mg and 209.0 mg and 1741.1 mg and 2763.5 mg and 370.1 mg
- TC-71 tumour weight, mean [15]: 944.7 mg
- TC-71 tumour weight, individual mice [16]: 1094.7 mg and 481.3 mg and 3462.7 mg and 4619.8 mg
- TC-71 tumour weight, mean [16]: 1657.1 mg
